Source: paper PMC4790320, “Purification of a Multidrug Resistance Transporter for Crystallization Studies” (Antibiotics, 2015)

Target: T1, MdtM (Escherichia coli, UniProt P39386)
T1 construct: full ORF in modified pBAD/Myc-His A, decaHis tag removed with thrombin; expressed in E. coli LMG194; IMAC with ATP wash to remove chaperonin, SEC in DDM; ~45 kDa; monomer
Assay: intrinsic tryptophan fluorescence quenching
Type: binding

T1 sequence (P39386 whole entry): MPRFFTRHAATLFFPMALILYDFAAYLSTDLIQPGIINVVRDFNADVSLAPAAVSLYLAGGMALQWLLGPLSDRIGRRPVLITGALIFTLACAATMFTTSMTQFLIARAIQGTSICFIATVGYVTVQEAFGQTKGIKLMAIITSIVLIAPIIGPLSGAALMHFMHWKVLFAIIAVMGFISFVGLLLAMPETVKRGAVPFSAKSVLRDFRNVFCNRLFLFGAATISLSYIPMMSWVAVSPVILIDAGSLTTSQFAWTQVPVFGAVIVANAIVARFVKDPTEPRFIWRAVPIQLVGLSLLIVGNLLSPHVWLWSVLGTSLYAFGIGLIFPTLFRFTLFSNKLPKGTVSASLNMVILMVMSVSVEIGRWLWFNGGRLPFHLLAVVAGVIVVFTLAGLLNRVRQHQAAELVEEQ

O=C(N[C@H](CO)[C@H](O)c1ccc([N+](=O)[O-])cc1)C(Cl)Cl [chloramphenicol]
Kd: 0.036 ± 0.003 µM
